Assay results published in PubChem BioAssay AID2060906 (Molecular Pharmacology Branch, DTP, NCI, 2025).
Several values for one entry are separate records, joined by “and”; a condition that tells them apart may be missing. Identical values can stand only once.

Tested on: 485176-168-R4-J1-PDC complex spheroid growth
Assay: Anticancer human tumor 485176-168-R4-J1-PDC patient-derived pancreatic adenocarcinoma cell line growth inhibition [RAS]
Conditions: for viability, T/C: stronger effect = lower value
Outline: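 Agents were tested in combination matrices in half-log decrements from a top concentration at or near clinical Cmax (10 microM if undetermined). Targets were multi-cell spheroids of tumour lines plus HUVEC and MSC stromal cells.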

[1] = curve of first compound, second compound 0.0316 µM
[2] = curve of first compound, second compound 0.1 µM
[3] = curve of first compound, second compound 0.316 µM
[4] = curve of first compound, second compound 1 µM
[5] = curve of first compound, second compound 3.16 µM
[6] = curve of first compound, second compound 10 µM
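Also: spheroids exposed to compounds for seven days before readout.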
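For viability, T/C in this document: luminescence viability expressed relative to DMSO vehicle wells set as 100%.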

CC1(C)CCC(Nc2ncc(C(F)(F)F)c(-c3c[nH]c4c(P(C)(C)=O)c(C#N)ccc34)n2)CN1 (stereo unspecified) + C#Cc1c(F)ccc2cc(O)cc(-c3ncc4c(N5CC6CCC(C5)N6)nc(OCC56CCCN5CC(F)C6)nc4c3F)c12
IC50 [1]: > 0.3 µM | IC50 [2]: > 0.3 µM | IC50 [3]: > 0.3 µM | IC50 [4]: 0.262 µM | IC50 [5]: > 0.3 µM | IC50 [6]: 0.114 µM | viability, T/C (second compound 0.0316 µM, first compound 0.000949 µM): 106% | viability, T/C (second compound 0.0316 µM, first compound 0.003 µM): 98.2% | viability, T/C (second compound 0.0316 µM, first compound 0.00949 µM): 83.8% | viability, T/C (second compound 0.0316 µM, first compound 0.03 µM): 59.8% | viability, T/C (second compound 0.0316 µM, first compound 0.0949 µM): 61.8% | viability, T/C (second compound 0.0316 µM, first compound 0.3 µM): 56.2% | viability, T/C (second compound 0.1 µM, first compound 0.000949 µM): 98.5% | viability, T/C (second compound 0.1 µM, first compound 0.003 µM): 114% | viability, T/C (second compound 0.1 µM, first compound 0.00949 µM): 79.1% | viability, T/C (second compound 0.1 µM, first compound 0.03 µM): 59.7% | viability, T/C (second compound 0.1 µM, first compound 0.0949 µM): 56.9% | viability, T/C (second compound 0.1 µM, first compound 0.3 µM): 50% | viability, T/C (second compound 0.316 µM, first compound 0.000949 µM): 106% | viability, T/C (second compound 0.316 µM, first compound 0.003 µM): 121% | viability, T/C (second compound 0.316 µM, first compound 0.00949 µM): 84.5% | viability, T/C (second compound 0.316 µM, first compound 0.03 µM): 55.8% | viability, T/C (second compound 0.316 µM, first compound 0.0949 µM): 53.1% | viability, T/C (second compound 0.316 µM, first compound 0.3 µM): 60.5% | viability, T/C (second compound 1 µM, first compound 0.000949 µM): 118% | viability, T/C (second compound 1 µM, first compound 0.003 µM): 96% | viability, T/C (second compound 1 µM, first compound 0.00949 µM): 80.5% | viability, T/C (second compound 1 µM, first compound 0.03 µM): 68.1% | viability, T/C (second compound 1 µM, first compound 0.0949 µM): 53.5% | viability, T/C (second compound 1 µM, first compound 0.3 µM): 50.4% | viability, T/C (second compound 3.16 µM, first compound 0.000949 µM): 107% | viability, T/C (second compound 3.16 µM, first compound 0.003 µM): 97.9% | viability, T/C (second compound 3.16 µM, first compound 0.00949 µM): 84.5% | viability, T/C (second compound 3.16 µM, first compound 0.03 µM): 63.8% | viability, T/C (second compound 3.16 µM, first compound 0.0949 µM): 58.3% | viability, T/C (second compound 3.16 µM, first compound 0.3 µM): 53% | viability, T/C (second compound 10 µM, first compound 0.000949 µM): 99.3% | viability, T/C (second compound 10 µM, first compound 0.003 µM): 89.3% | viability, T/C (second compound 10 µM, first compound 0.00949 µM): 81.2% | viability, T/C (second compound 10 µM, first compound 0.03 µM): 68.7% | viability, T/C (second compound 10 µM, first compound 0.0949 µM): 46.2% | viability, T/C (second compound 10 µM, first compound 0.3 µM): 46.4%

CC(=O)OC12COC1CC(O)C1(C)C(=O)C(O)C3=C(C)C(OC(=O)C(O)C(NC(=O)OC(C)(C)C)c4ccccc4)CC(O)(C(OC(=O)c4ccccc4)C21)C3(C)C (stereo unspecified)
viability, T/C (compound 0.0316 µM): 15.6% [middle of 4 runs] | viability, T/C (compound 0.1 µM): 14.3% [middle of 4 runs] | viability, T/C (compound 0.316 µM): 12.7% [middle of 4 runs] | viability, T/C (compound 1 µM): 13.4% and 12.8% and 14.2% (2×) | viability, T/C (compound 3.16 µM): 17.2% [middle of 4 runs] | viability, T/C (compound 10 µM): 17.7% and 22.4% (2×) and 25.1% | IC50 (curve of compound): < 0.0316 µM

CC(C)NCC(C(=O)N1CCN(c2ncnc3c2C(C)CC3O)CC1)c1ccc(Cl)cc1 (stereo unspecified) + C#Cc1c(F)ccc2cc(O)cc(-c3ncc4c(N5CC6CCC(C5)N6)nc(OCC56CCCN5CC(F)C6)nc4c3F)c12
IC50 [1]: 3.29 µM | IC50 [2]: 0.851 µM | IC50 [3]: 2.77 µM | IC50 [4]: 0.884 µM | IC50 [5]: 2.12 µM | IC50 [6]: 1.51 µM | viability, T/C (second compound 0.0316 µM, first compound 0.0316 µM): 113% | viability, T/C (second compound 0.0316 µM, first compound 0.1 µM): 99.2% | viability, T/C (second compound 0.0316 µM, first compound 0.316 µM): 84.7% | viability, T/C (second compound 0.0316 µM, first compound 1 µM): 70.1% | viability, T/C (second compound 0.0316 µM, first compound 3.16 µM): 47.3% | viability, T/C (second compound 0.0316 µM, first compound 10 µM): 38.5% | viability, T/C (second compound 0.1 µM, first compound 0.0316 µM): 99% | viability, T/C (second compound 0.1 µM, first compound 0.1 µM): 127% | viability, T/C (second compound 0.1 µM, first compound 0.316 µM): 72.8% | viability, T/C (second compound 0.1 µM, first compound 1 µM): 59.8% | viability, T/C (second compound 0.1 µM, first compound 3.16 µM): 45.6% | viability, T/C (second compound 0.1 µM, first compound 10 µM): 33.4% | viability, T/C (second compound 0.316 µM, first compound 0.0316 µM): 109% | viability, T/C (second compound 0.316 µM, first compound 0.1 µM): 96.5% | viability, T/C (second compound 0.316 µM, first compound 0.316 µM): 72.7% | viability, T/C (second compound 0.316 µM, first compound 1 µM): 65.4% | viability, T/C (second compound 0.316 µM, first compound 3.16 µM): 51.8% | viability, T/C (second compound 0.316 µM, first compound 10 µM): 31.1% | viability, T/C (second compound 1 µM, first compound 0.0316 µM): 92.2% | viability, T/C (second compound 1 µM, first compound 0.1 µM): 105% | viability, T/C (second compound 1 µM, first compound 0.316 µM): 72.4% | viability, T/C (second compound 1 µM, first compound 1 µM): 51.4% | viability, T/C (second compound 1 µM, first compound 3.16 µM): 48.5% | viability, T/C (second compound 1 µM, first compound 10 µM): 35.3% | viability, T/C (second compound 3.16 µM, first compound 0.0316 µM): 99.3% | viability, T/C (second compound 3.16 µM, first compound 0.1 µM): 96.1% | viability, T/C (second compound 3.16 µM, first compound 0.316 µM): 82.9% | viability, T/C (second compound 3.16 µM, first compound 1 µM): 53.8% | viability, T/C (second compound 3.16 µM, first compound 3.16 µM): 52% | viability, T/C (second compound 3.16 µM, first compound 10 µM): 31% | viability, T/C (second compound 10 µM, first compound 0.0316 µM): 104% | viability, T/C (second compound 10 µM, first compound 0.1 µM): 87.9% | viability, T/C (second compound 10 µM, first compound 0.316 µM): 82.6% | viability, T/C (second compound 10 µM, first compound 1 µM): 55.8% | viability, T/C (second compound 10 µM, first compound 3.16 µM): 36.8% | viability, T/C (second compound 10 µM, first compound 10 µM): 33.9%
